Results taken from ChEMBL document CHEMBL5512629, “Insight into small-molecule inhibitors targeting extracellular nucleotide pyrophosphatase/phosphodiesterase1 for potential multiple human diseases” (Eur J Med Chem, 2024).
pIC50, pKi: −log10 of the molar value. One block for each compound: values may come before it.

How the values were obtained:
[1] = target: T1, Ectonucleotide pyrophosphatase/phosphodiesterase family member 1 (Homo sapiens, UniProt P22413); assay: Binding affinity to ENPP1 (unknown origin) assessed as inhibition constant
T1 sequence (P22413 whole entry): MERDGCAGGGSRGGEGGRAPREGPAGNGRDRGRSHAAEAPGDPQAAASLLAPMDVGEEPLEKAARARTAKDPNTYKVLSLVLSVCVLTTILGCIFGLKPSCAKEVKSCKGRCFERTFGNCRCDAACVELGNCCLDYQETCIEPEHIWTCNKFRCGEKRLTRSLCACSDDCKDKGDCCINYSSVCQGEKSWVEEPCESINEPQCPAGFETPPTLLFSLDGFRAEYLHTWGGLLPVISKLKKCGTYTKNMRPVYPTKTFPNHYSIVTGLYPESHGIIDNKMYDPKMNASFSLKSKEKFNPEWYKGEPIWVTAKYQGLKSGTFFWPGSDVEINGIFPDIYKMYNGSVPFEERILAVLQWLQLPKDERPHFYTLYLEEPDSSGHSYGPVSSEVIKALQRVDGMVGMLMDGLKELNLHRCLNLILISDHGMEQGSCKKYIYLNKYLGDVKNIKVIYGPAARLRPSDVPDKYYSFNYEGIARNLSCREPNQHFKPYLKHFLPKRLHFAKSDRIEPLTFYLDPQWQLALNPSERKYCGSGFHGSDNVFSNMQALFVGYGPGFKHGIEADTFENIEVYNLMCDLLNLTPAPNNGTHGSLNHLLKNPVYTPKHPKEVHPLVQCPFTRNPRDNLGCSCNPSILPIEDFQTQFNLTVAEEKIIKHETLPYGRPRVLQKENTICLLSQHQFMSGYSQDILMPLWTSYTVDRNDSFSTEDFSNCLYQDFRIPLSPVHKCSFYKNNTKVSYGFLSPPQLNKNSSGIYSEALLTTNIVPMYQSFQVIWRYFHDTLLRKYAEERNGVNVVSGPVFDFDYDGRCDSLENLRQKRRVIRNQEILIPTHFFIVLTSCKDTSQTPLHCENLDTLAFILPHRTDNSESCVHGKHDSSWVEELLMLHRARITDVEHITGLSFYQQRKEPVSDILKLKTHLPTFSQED

[2] = target: T1, Ectonucleotide pyrophosphatase/phosphodiesterase family member 1; assay: Inhibition of human ENPP1
[3] = Oral bioavailability in mouse; format: ADME, organism-based; conditions: in vivo
[4] = target: T1, Ectonucleotide pyrophosphatase/phosphodiesterase family member 1; assay: Inhibition of ENPP1 (unknown origin)
[5] = target: T1, Ectonucleotide pyrophosphatase/phosphodiesterase family member 1; assay: Binding affinity to human ENPP1 assessed as inhibition constant

Compound: Nc1ncnc2c1ncn2[C@@H]1O[C@H](COP(=O)(O)CP(=O)(O)OP(O)(O)=S)[C@@H](O)[C@H]1O
- pKi [1]: 4.70

Compound: COc1cc2cc(-n3cc(C)c4ccccc43)n3c4ccccc4c(C)c3c2cc1OC
- pIC50 [2]: 6.44

Compound: Cn1nc(Cc2ccc(NS(N)(=O)=O)cc2)c2ccccc2c1=O
- bioavailability [3]: 65%

Compound: O=C(/C=C/c1ccc(O)c(O)c1)O[C@H](Cc1ccc(O)c(O)c1)C(=O)O [ROSMARINIC ACID]
- pKi [5]: 7.57

The next lines start with the values.

- pIC50 [4]: 5.69
Compound: COc1ccc(NC(=O)CSc2nc3c(C)c(C#N)ncc3[nH]2)cc1O

- pIC50 [4]: 3.59
Compound: Cc1nc2ncnn2c(N(C)C)c1Cc1cccc(N)c1

- pKi [5]: > 8.70
Compound: COc1cccc2c(N3CCC(CCP(=O)(O)O)CC3)ncnc12
